Assay results published in the supplement of paper PMC11061612.

What was measured:
[1] = system: Saos-2 (Osteosarcoma); assay: combination Emax (second highest fraction inhibited in the dose matrix, 72 h); higher = more inhibition; extreme values may be limits of the assay
How it was run: (§1)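 After 24 hours at 37°C and 5% CO2 in 1536-well plates, cells in DMEM/F12 or RPMI plus 10% FBS received two-drug dose matrices for 72 hours. Viability came from CellTiter-Glo 2.0 luminescence and was scaled as inhibition, anchored at 0 by vehicle wells and at 1 by blank wells. Combination Emax is taken as the second-highest inhibition in the matrix, and Bliss excess as the observed combination effect less EA + EB − EA·EB, with EA and EB the single-agent effects.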

[2] = system: MSTO-211H (Mesothelioma); assay: as above
How it was run: as §1

[3] = system: P31-FUJ (Acute Myeloid Leukemia); assay: as above
How it was run: as §1

[4] = system: CAL-39 (Other Solid Carcinomas); assay: as above
How it was run: as §1

[5] = system: SNU-61 (Colorectal Carcinoma); assay: as above
How it was run: as §1

[6] = system: HCC38 (Breast Carcinoma); assay: as above
How it was run: as §1

[7] = system: SKN-3 (Head and Neck Carcinoma); assay: as above
How it was run: as §1

[8] = system: HOP-92 (Non-Small Cell Lung Carcinoma); assay: as above
How it was run: as §1

[9] = system: YT (Other Blood Carcinomas); assay: as above
How it was run: as §1

[10] = system: ETK-1 (Biliary Tract Carcinoma); assay: as above
How it was run: as §1

[11] = system: RCC10RGB (Kidney Carcinoma); assay: as above
How it was run: as §1

[12] = system: EKVX (Non-Small Cell Lung Carcinoma); assay: as above
How it was run: as §1

[13] = system: SLVL (B-Cell Non-Hodgkin's Lymphoma); assay: as above
How it was run: as §1

[14] = system: MES-SA (Other Solid Carcinomas); assay: as above
How it was run: as §1

[15] = system: Saos-2 (Osteosarcoma); assay: Bliss excess, mean over the matrix (fraction); higher = more synergy
How it was run: as §1

[16] = system: BICR78 (Oral Cavity Carcinoma); assay: as above
How it was run: as §1

[17] = system: WSU-DLCL2 (B-Cell Non-Hodgkin's Lymphoma); assay: as above
How it was run: as §1

[18] = system: HCC-827 (Lung Adenocarcinoma); assay: as above
How it was run: as §1

[19] = system: D-283MED (Other Solid Carcinomas); assay: as above
How it was run: as §1

[20] = system: A172 (Glioblastoma); assay: as above
How it was run: as §1
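Wherever Bliss excess, mean over the matrix is given: after 72 h of two-drug dosing.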

| Compound | combination Emax [1] | combination Emax [2] | combination Emax [3] | combination Emax [4] | combination Emax [5] | combination Emax [6] | combination Emax [7] | combination Emax [8] | combination Emax [9] | combination Emax [10] | combination Emax [11] | combination Emax [12] | combination Emax [13] | combination Emax [14] | Bliss excess [15] | Bliss excess [16] | Bliss excess [17] | Bliss excess [18] | Bliss excess [19] | Bliss excess [20] |
| --- | --- | --- | --- | --- | --- | --- | --- | --- | --- | --- | --- | --- | --- | --- | --- | --- | --- | --- | --- | --- |
| Cc1c2c(nn1C)CSCc1cc(n(C)n1)CSc1cc(c3ccccc3c1)OCCCc1c(C(=O)O)n(C)c3c-2c(Cl)ccc13 [AZD5991] + CN(C)CCCOc1ccc(-c2ccc3ncc4c(c3c2)n(C2CCOCC2)c(=O)n4C)cn1 [AZD0156] (first compound max 1 µM, 7x7, partner max 1 µM) | 0.239 | 0.188 | 0.974 | 0.515 | 0.196 | 0.365 | 0.339 | 0.41 | 1 | 0.26 | 0.243 | 0.239 | 0.425 | 0.384 | -0.0158 | 0.0199 | -0.0033 | 0.011 | 0.0096 | -0.0019 |
| Cc1c2c(nn1C)CSCc1cc(n(C)n1)CSc1cc(c3ccccc3c1)OCCCc1c(C(=O)O)n(C)c3c-2c(Cl)ccc13 [AZD5991] + CC1(C)CCC(CN2CCN(c3ccc(C(=O)NS(=O)(=O)c4ccc(NCC5CCOCC5)c([N+](=O)[O-])c4)c(Oc4cnc5[nH]ccc5c4)c3)CC2)=C(c2ccc(Cl)cc2)C1 [Venetoclax] (first compound max 1 µM, 7x7, partner max 1 µM) | 0.534 | 0.137 | 0.998 | 0.292 | 0.155 | 0.463 | 0.15 | 0.44 | 1 | 0.152 | 0.221 | 0.138 | 0.777 | 0.323 | 0.0174 | -0.0106 | 0.173 | -0.0269 | 0.0701 | -0.0222 |
| Cc1c2c(nn1C)CSCc1cc(n(C)n1)CSc1cc(c3ccccc3c1)OCCCc1c(C(=O)O)n(C)c3c-2c(Cl)ccc13 [AZD5991] + C[C@@H]1COCCN1C2=NC(=NC(=C2)C3(CC3)[S@](=N)(=O)C)C4=C5C=CNC5=NC=C4 [AZD6738] (first compound max 1 µM, 7x7, partner max 10 µM) | 0.6 | 0.688 | 0.998 | 0.645 | 0.349 | 0.688 | 0.687 | 0.723 | 1 | 0.658 | 0.43 | 0.29 | 0.873 | 0.762 | -0.0135 | -0.0327 | 0.0004 | – | -0.0109 | -0.0012 |
| Cc1c2c(nn1C)CSCc1cc(n(C)n1)CSc1cc(c3ccccc3c1)OCCCc1c(C(=O)O)n(C)c3c-2c(Cl)ccc13 [AZD5991] + C=CCn1c(=O)c2cnc(Nc3ccc(N4CCN(C)CC4)cc3)nc2n1-c1cccc(C(C)(C)O)n1 [AZD1775] (first compound max 1 µM, partner max 1 µM) | 0.801 | 0.596 | 0.99 | 0.677 | 0.49 | 0.657 | 0.696 | 0.807 | 0.998 | 0.59 | 0.541 | 0.316 | 0.937 | 0.84 | – | -0.0034 | -0.0245 | -0.0243 | -0.0583 | 0.0736 |
| CC(=O)c1c(C)c2cnc(Nc3ccc(N4CCNCC4)cn3)nc2n(C2CCCC2)c1=O [Palbociclib] + Cn1cnc2c(F)c(Nc3ccc(Br)cc3Cl)c(C(=O)NOCCO)cc21 [Selumetinib] (first compound max 10 µM, 7x7, partner max 10 µM) | 0.232 | 0.137 | 0.475 | 0.775 | 0.447 | 0.139 | 0.349 | 0.458 | 0.606 | 0.347 | 0.547 | – | 0.593 | 0.38 | -0.0402 | 0.0133 | -0.0194 | -0.0172 | 0.0045 | 0.0031 |
| NC1(C(=O)N[C@@H](CCO)c2ccc(Cl)cc2)CCN(c2ncnc3[nH]ccc23)CC1 [Capivasertib] + C[C@@H]1COCCN1C2=NC(=NC(=C2)C3(CC3)[S@](=N)(=O)C)C4=C5C=CNC5=NC=C4 [AZD6738] (first compound max 10 µM, 7x7, partner max 10 µM) | 0.586 | 0.304 | 0.971 | 0.653 | 0.309 | 0.621 | 0.566 | 0.541 | 0.838 | 0.695 | 0.469 | – | 0.845 | 0.721 | -0.0717 | 0.0163 | -0.0088 | -0.0421 | -0.0048 | -0.0106 |
| NC1(C(=O)N[C@@H](CCO)c2ccc(Cl)cc2)CCN(c2ncnc3[nH]ccc23)CC1 [Capivasertib] + COc1nnc2ccc(N3CCC(c4ccc(OCCN5CCN(C)C(=O)[C@H]5C)cc4)CC3)nn12 [AZD5153] (first compound max 10 µM, 7x7, partner max 1 µM) | 0.554 | 0.258 | 1 | 0.787 | 0.303 | 0.461 | 0.581 | 0.405 | 0.792 | 0.503 | 0.518 | – | 0.764 | 0.621 | -0.0028 | 0.0135 | -0.0546 | 0.0472 | -0.0185 | 0.0178 |
| CS(=O)(=O)CCNCc1ccc(-c2ccc3ncnc(Nc4ccc(OCc5cccc(F)c5)c(Cl)c4)c3c2)o1 [Lapatinib] + C[C@@H](Oc1cc(-c2cnn(C3CCNCC3)c2)cnc1N)c1c(Cl)ccc(F)c1Cl [Crizotinib] (first compound max 10 µM, 7x7, partner max 10 µM) | 0.889 | 0.263 | 0.957 | 1 | 0.697 | 0.556 | 0.738 | 0.937 | 0.939 | 0.958 | 0.908 | – | 0.65 | 0.813 | -0.0452 | 0.0073 | -0.0162 | -0.038 | -0.0496 | -0.0564 |
| CC(=O)c1c(C)c2cnc(Nc3ccc(N4CCNCC4)cn3)nc2n(C2CCCC2)c1=O [Palbociclib] + Cc1c2c(nn1C)CSCc1cc(n(C)n1)CSc1cc(c3ccccc3c1)OCCCc1c(C(=O)O)n(C)c3c-2c(Cl)ccc13 [AZD5991] (first compound max 10 µM, 7x7, partner max 1 µM) | 0.332 | 0.144 | 0.907 | 0.409 | 0.171 | 0.192 | 0.244 | 0.293 | 1 | 0.303 | 0.419 | – | 0.471 | 0.513 | -0.0197 | -0.0375 | -0.0052 | -0.0324 | 0.0099 | -0.0589 |
| Cn1cnc2c(F)c(Nc3ccc(Br)cc3Cl)c(C(=O)NOCCO)cc21 [Selumetinib] + C[C@@H]1COCCN1C2=NC(=NC(=C2)C3(CC3)[S@](=N)(=O)C)C4=C5C=CNC5=NC=C4 [AZD6738] (first compound max 10 µM, 7x7, partner max 10 µM) | 0.456 | 0.396 | 0.948 | 0.697 | 0.527 | 0.373 | 0.457 | 0.398 | 0.801 | 0.587 | 0.513 | – | 0.671 | 0.601 | -0.0349 | -0.001 | -0.0228 | -0.0172 | -0.0564 | -0.0564 |
| CCc1c2c(nc3ccc(O)cc13)-c1cc3c(c(=O)n1C2)COC(=O)[C@]3(O)CC [SN-38] + O=C(c1cc(Cc2n[nH]c(=O)c3ccccc23)ccc1F)N1CCN(C(=O)C2CC2)CC1 [Olaparib] (first compound max 0.3 µM, 7x7, partner max 10 µM) | 0.96 | 0.677 | 0.987 | 0.979 | – | 0.682 | – | – | 0.895 | 0.63 | – | 0.3 | 1 | – | 0.0247 | 0.0587 | 0.0564 | 0.052 | 0.0174 | 0.0639 |
| COc1cc2ncnc(Nc3ccc(F)c(Cl)c3)c2cc1OCCCN1CCOCC1 [Gefitinib] + CC(C)n1c(=O)n(C)c2cnc3cc(F)c(-c4ccc(OCCCN5CCCCC5)nc4)cc3c21 [AZD1390] (first compound max 10 µM, 7x7, partner max 0.3 µM) | 0.184 | 0.0343 | 0.455 | 0.833 | 0.18 | 0.109 | 0.236 | 0.229 | 0.185 | 0.576 | 0.563 | – | 0.185 | 0.0714 | -0.0621 | -0.0788 | 0.0143 | -0.0613 | -0.0426 | -0.0554 |
| NC1(C(=O)N[C@@H](CCO)c2ccc(Cl)cc2)CCN(c2ncnc3[nH]ccc23)CC1 [Capivasertib] + CC(C)n1c(=O)n(C)c2cnc3cc(F)c(-c4ccc(OCCCN5CCCCC5)nc4)cc3c21 [AZD1390] (first compound max 10 µM, 7x7, partner max 0.3 µM) | 0.473 | 0.213 | 0.645 | 0.457 | 0.146 | 0.352 | 0.2 | 0.376 | 0.336 | 0.331 | 0.2 | – | 0.637 | 0.469 | -0.0063 | -0.0552 | 0.0106 | -0.0793 | -0.0009 | -0.0965 |
| C=CCn1c(=O)c2cnc(Nc3ccc(N4CCN(C)CC4)cc3)nc2n1-c1cccc(C(C)(C)O)n1 [AZD1775] + C[C@@H]1COCCN1C2=NC(=NC(=C2)C3(CC3)[S@](=N)(=O)C)C4=C5C=CNC5=NC=C4 [AZD6738] (first compound max 1 µM, partner max 10 µM) | 0.823 | 0.85 | 0.952 | 0.598 | 0.404 | 0.712 | 0.648 | 0.643 | 0.897 | 0.665 | 0.538 | 0.327 | 0.917 | 0.852 | 0.0071 | – | 0.0763 | -0.0286 | 0.0327 | 0.0433 |
